Experimental data: ChEMBL document CHEMBL3102804, “Synthesis, anticancer activity and DNA-binding properties of novel 4-pyrazolyl-1,8-naphthalimide derivatives” (Bioorg Med Chem Lett, 2014)
Active and inactive are the calls of the source. The calls are words filed in the database; no cut-off is given here.

Columns and labels:
MCF7 [1] = assay: Cytotoxicity against human MCF7 cells assessed as cell viability after 48 hrs by MTT assay; assay type: functional, cell-based; settings: MCF7, 48 h
HeLa [2] = assay: Cytotoxicity against human HeLa cells assessed as cell viability after 48 hrs by MTT assay; assay type: functional, cell-based
A549 [3] = assay: Cytotoxicity against human A549 cells assessed as cell viability after 48 hrs by MTT assay; assay type: functional, cell-based; settings: A549, 48 h
A549 [4] = assay: Potency index, ratio of amonafide IC50 to compound IC50 for human A549 cells; assay type: functional
HeLa [5] = assay: Potency index, ratio of amonafide IC50 to compound IC50 for human HeLa cells; assay type: functional
DNA [6] = assay: Binding affinity to calf thymus DNA assessed as change in melting temperature at 5 uM by UV spectrophotometric analysis; assay type: nucleic-acid assay; settings: Bos taurus
DNA [7] = assay: Binding affinity to calf thymus DNA by fluorescent spectra analysis; assay type: nucleic-acid assay; settings: Bos taurus
DNA [8] = assay: Binding affinity to calf thymus DNA at compound to DNA ratio 0.1 to 0.5 by CD spectra analysis; assay type: nucleic-acid assay; settings: Bos taurus
DNA [9] = assay: Binding affinity to calf thymus DNA at compound to DNA ratio >= 2 by CD spectra analysis; assay type: nucleic-acid assay; settings: Bos taurus
MCF7 [10] = assay: Potency index, ratio of amonafide IC50 to compound IC50 for human MCF7 cells; assay type: functional
DNA [11] = assay: Binding affinity to calf thymus DNA assessed as hypochromicity/bathochromic shift after 120 mins by UV-vis absorption spectra analysis; assay type: nucleic-acid assay; settings: Bos taurus
DNA [12] = assay: Binding affinity to calf thymus DNA assessed as melting temperature at 5 uM by UV spectrophotometric analysis (reference value: 59.7 degC); assay type: nucleic-acid assay; settings: Bos taurus

Structure (SMILES)	IC50 (MCF7 [1]) [µM]	IC50 (HeLa [2]) [µM]	IC50 (A549 [3]) [µM]	other results
COc1cccc(-c2cnn(-c3ccc4c5c(cccc35)C(=O)N(CCN(C)C)C4=O)c2)c1	1.99	14.6	12	
CN(C)CCN1C(=O)c2cccc3c(-n4cc(-c5ccc(C(F)(F)F)cc5)cn4)ccc(c23)C1=O	4.26	13.3	25	
CN(C)CCN1C(=O)c2cccc3c(-n4cc(-c5cc(C(F)(F)F)cc(C(F)(F)F)c5)cn4)ccc(c23)C1=O	3.39	16.6	25.4	
CN(C)CCN1C(=O)c2cccc3c(-n4cc(-c5ccc(F)cc5)cn4)ccc(c23)C1=O	1.56	3.1	24	
COc1ccc(-c2cnn(-c3ccc4c5c(cccc35)C(=O)N(CCN(C)C)C4=O)c2)cc1OC	0.79	3.5	11.8	
CN(C)CCN1C(=O)c2cccc3c(-n4cc(-c5ccc(Cl)cc5)cn4)ccc(c23)C1=O	4.24	10.6	17.2	
Cc1ccc(-c2cnn(-c3ccc4c5c(cccc35)C(=O)N(CCN(C)C)C4=O)c2)cc1	17	4.6	5.09	Ratio IC50 (A549 [4]): 2.6
CN(C)CCN1C(=O)c2cccc3c(-n4cc(-c5ccccc5)cn4)ccc(c23)C1=O	1.58	6.5	8.52	
COc1cc(-c2cnn(-c3ccc4c5c(cccc35)C(=O)N(CCN(C)C)C4=O)c2)cc(OC)c1OC	0.51	3.09	5.14	Ratio IC50 (HeLa [5]): 2.2; ΔTm (DNA [6]): 1.8 °C; Kbapp (DNA [7]): 1.04 ×10⁴ /M; Activity (DNA [8]): Active; Ratio IC50 (A549 [4]): 2.5; Activity (DNA [9]): Active; Ratio IC50 (MCF7 [10]): 3.3; Kb (DNA [11]): 1.01 ×10⁴ /M; Tm (DNA [12]): 61.5 °C
CN(C)CCN1C(=O)c2cccc3c(-n4cccn4)ccc(c23)C1=O	2.72	9.47	> 50	
CN(C)CCN1C(=O)c2cccc3c(-n4cc(-c5ccc(Br)cc5)cn4)ccc(c23)C1=O	10.7	3.47	> 50	
COc1ccc(-c2cnn(-c3ccc4c5c(cccc35)C(=O)N(CCN(C)C)C4=O)c2)cc1	2.62	4.99	7.69	
CN(C)CCN1C(=O)c2cccc3cc(N)cc(c23)C1=O [AMONAFIDE]		6.71		
